Data published in US7737250B2, “Peptides for treating axonal damage, inhibition of neurotransmitter release and pain transmission, and blocking calcium influx in neurons” (Mount Sinai School of Medicine of New York University, priority 2003, dated 2010).

How the values were obtained:
[1] = test system: secretion of Substance P from DRG neurons; assay: Substance P secretion, single-cell immunoblot assay; type: cell-based, chick; details: DRG neurons pre-incubated with peptide 1.4 μg/ml for 1 hour
Experimental: Secretion Assay: Secretion of substance P was analyzed using the single-cell immunoblot method adapted from Huang and Neher (Huang, L. Y., Neher, E. (1996) Neuron. 17, 135-45.). Briefly, polyvinylidene difluoride transfer membranes (Immobilon P brand from Millipore) were cut to […] and placed in a 6-well plate. Membranes were pre-wetted with methanol for 20 s, rinsed with distilled water and allowed to equilibrate in test solution for >1 hr. In parallel, DRG cells plated were incubated with media containing AP-YF or AP-Scr (1.4 μg/ml) for 1 hour. This media was removed, and replaced with 70 μl of test solution. The membranes were then placed on top of the cells, and allowed to incubate at 37° C. in a humidified CO2 incubator for 30 min. The membranes were then carefully removed from the cells and allowed to dry completely and fixed with powdered paraformaldehyde at 80° C. for 1 hr. Fixed membranes were rinsed in PBS (1 mM KH2PO4, 10 mM Na2HPO4, 137 mM NaCl, 2.7 mM KCl) containing 1% Triton X-100 (PBS-T) to remove excess paraformaldehyde, and blocked with PBS-T containing 3% fetal bovine serum (FBS) for 30 min at room temperature. The membranes were incubated with anti-substance P antibody (Santa Cruz) at 1:200 dilution in PBS-T with 1% FBS overnight in 37° C. incubator. The next day the membranes were developed with a peroxidase/diamninobenzidine (DAB) reaction using the ABC staining kit from Santa Cruz Biotechnology. Images were taken using a CCD camera, and analyzed using Photoshop and NIH image software. Data were plotted by assigning an upper and lower limit of gray values and plotting % of cells at a range within those limits. By plotting graphs as % of cells in a dynamic range, multiple experimental runs were pooled.

[2] = test system: cell-surface myc-L1-CAM on ND-7 cells; assay: L1-CAM diffusion behavior assay: movement of 9E10-coated beads bound to myc-L1-CAM (video microscopy, laser tweezers); type: cell-based, rat
Excerpt: Video microscopy, laser tweezers, and data analysis: The 9E10-coated latex beads were then placed and held with an optical gradient laser trap on the surface of transfected cells at a distance of between 0.5 and 1 μm from the leading edge for 2 seconds. The laser trap consisted of a Titanium Sapphire (Coherent; model 890) solid state laser pumped by a 5 W frequency-doubled Neodymnium Vanadate laser (Verdi; Coherent) and tuned to 800 nm. This wavelength was previously determined to generate the fewest heating artifacts in live cells (Svoboda and Block. Biomol Struct 1994;23:-247-285 and Choquet et al. Cell 1997;88:39-48). Laser power at the output of the Titanium Sapphire laser was 40 mW, and prepared beads were placed and held on the cell surface for less than 3 sec to further reduce the possibility of heating artifacts. Laser light was introduced through the television port of the Axiovert microscope.
Video images of bead movement were collected using a newvicon camera (Dage MTI; VE-1000N) and background subtraction and contrast enhancement were carried using a Hamamatsu Argus 20 image processor. Raw data were recorded to sVHS video tape for subsequent analysis. Video recordings were subsequently digitized onto an Intel processor-based computer running the Isee imaging software (Isee Imaging) running under Red Hat Linux 7.1. Quantification of bead movement was carried out in Isee. Diffusional analysis was carried out using a custom spreadsheet in Excel (Microsoft). This spreadsheet carries out 4 operations: first, it scales the data from pixel measurements to nm using the appropriate scale factor (determined by the magnification used to observe bead movement); second, it subtracts the first point from all of the data, to set the origin at 0,0 (x,y coordinates); third, it rotates (in two dimensional space) the data around the origin so that the orientation of the cell is the same from trial to trial (here, the data was set so that the cells all face to the left); and fourth, the spreadsheet calculates the mean square displacement (MSD) data which are used to calculate diffusion coefficients and bead velocity. Individual traces were scored blind for classes of behavior. Statistical analysis of percentages of trials was carried out using chi-squared analysis or a Fisher's exact probability test.
MSD values were calculated as previously described (see Qian et al, 1991; Biophysical Journal 60 p910). For these calculations, the squared displacement (a^2+b^2; where a=xn+t−xn, b=a=yn+t−yn for any two points separated by time t) of the bead was calculated between two points in the data set. The mean of the squared displacements was calculated for each time interval t=1 to m, where m is the time interval that equals 10% of the length of the data set. The mean displacement was plotted with respect to time giving a curve with a linear or quadratic shape, depending on the behavior of the bead. Diffusion rates and velocity were calculated by fitting the curve with the equation MSD=4Dt+v^2t^2, where D is the diffusion coefficient, v is the velocity and t is time. D and v were calculated for each bead independently and presented as averages or as individual values, as described in each case.
Cell culture and transfection: ND-7 cells (rat neuroblastoma/DRG hybrid cells) were plated and transfected with pMyc-L1-CAM, pMyc-L1-CAM-YF, pMyc-L1-CAM-YH, or pMyc-L1-CAM-STOP expression constructs as described in Example 3, supra.
In some instances, ND-7 cells transfected with pMyc-L1-CAM were treated with the cytoskeletal inhibitor cytochalasin D (2 μM; Sigma) or nocadazole (1 μM; Sigma). For these experiments treatment with DMSO (0.01%) vehicle alone served as the negative control.
In some instances, ND-7 cells transfected with pMyc-L1-CAM were treated with neural growth factor (NGF) to stimulate phosphorylation of tyrosine 1229 (Y1229) of the L1-CAM cytoplasmic domain, and thereby inhibit ankyrin binding. […]

[3] = ND-7 cells expressing myc-L1-CAM, 1.4 μg/ml peptide for 30 minutes

Sequence	high K^+-induced secretion of Substance P [1]	percentage of beads showing stationary behavior [2, 3]	percentage of trials undergoing retrograde movement [2, 3]	bead velocity compared to untreated controls ([2]; 1.4 μg/ml peptide)
RQIKIWFQNRRMKWKKQFNEDGSFIGQF [AP-YF]	blocks high K^+-induced secretion	reduced	increase	–
RQIKIWFQNRRMKWKKFQGIFSGDENFQ [AP-Scramble]	did not affect secretion significantly	–	–	no significant effect
